The source of these data is patent US5684030A, “2-substituted benzimidazole derivatives” (American Home Products Corporation, priority 1995, dated 1997).

In data set [1] the test system is porcine aortic smooth muscle cells. The data set can be described thus: Inhibition of PDGF-stimulated porcine aortic smooth muscle cell proliferation (3H-thymidine). In kind it is cell-based. Particulars: Sus scrofa; stimulated with human recombinant PDGF-AB; 24-36 hours at 37° C.; assayed at 1, 10, and 100 μM; read-out: Porcine Smooth Muscle Cell Antiproliferation IC50 or % Inhibition at × Concentration, PDGF. The procedure: (§1) The ability of the compounds of the present invention to inhibit smooth muscle cell proliferation was established using isolated porcine aortic smooth muscle cells in a modification of the procedure of Castellot et al. J. Biol. Chem 257(19) 11256 (1982), as follows:
(§2) Fresh porcine aortas, scrupulously cleansed of fatty tissue, are rinsed in sterile phosphate-buffered saline with 2% antibiotic-antimycotic (100×) liquid (10,000 units of penicillin (base), 10,000 μg of streptomycin (base), and 25 μg of amphotericin B/mL utilizing penicillin G (sodium salt), streptomycin sulfate, and amphotericin B as Fungizone® in 0.85% saline, available from Gibco Laboratories, Grand Island Biological Co., Grand Island, N.Y.). The tissue is then digested in 10-15 mL of an enzyme solution containing collagenase type I, 165 U/mL; elastase type III, 15 U/mL; BSA, 2 mg/mL; and soybean trypsin inhibitor, 0.375 mg/mL, followed by incubation at 37° C. under 5% CO2 atmosphere for 10 to 15 minutes. After this treatment, the outer surface adventitia is removed by peeling with a forceps. The aorta is then longitudinally cut and laid open and the endothelial layer is removed by scraping.
(§3) The medial layer of cells is rinsed in the enzyme solution, and placed in a new 100 mm dish with 10 mL of enzyme solution. The medial layer of cells is minced using a fine pair of scissors and digested for 2-3 hours at 37° C. in 30 mL of fresh enzyme solution. After digestion, the medial tissue is homogenized using a sterile Pasteur pipette with a fire polished tip or an Eppendorf pipetter with a 200-1000 μL sterile pipette tip. The suspension is then centrifuged for 10 minutes at 8000 rpm and the pellet is suspended in 4-6 mL of fresh enzyme solution and plated onto 4-6 100 mm flasks with vented caps. The cells are then allowed to grow to confluence and split using 0.25% trypsin. The cells are evaluated for purity and overall quality using antibody to SMC actin.
(§4) The cells are assayed in early passage (generally passage 3-7) at sub-confluent conditions. Cultures are grown in 16 mm (24 well) multi-well culture dishes in media 199 supplemented with 10% fetal bovine serum and 2% antibiotic/antimycotic. At subconfluence, the cells are placed in a defined serum free, lymphocyte medium (AIM-V; Gibco) for 24-48 hours prior to initiating the experimental protocol.
(§5) The standard test procedure is initiated by addition of the test compound, ^3 H-thymidine and serum or a specific growth factor to the serum deprived synchronized cells. Growth factor and serum stimulations are optimized for each cell type. The test compounds are added to each well at 50 fold dilution (20 μL/well) and the plates are incubated for 24-36 hours at 37° C. in 5% CO2 atmosphere. Test compounds are dissolved in 50% ethanol and assayed at 1, 10, and 100 μM. As a control, RG 50872 (Bilder, G. A.; et al., Am. J. Cell Physiol., 1991; 260: C721) is routinely assayed under the conditions of each cell preparation at a concentration of 5 μM.
(§6) At the completion of the experiment, the plates are placed on ice, washed three times with ice cold PBS and incubated in ice cold 10% trichloroacetic acid (TCA) for 30 minutes to remove acid soluble proteins. […]
(§7) Data is quantitated by subjecting the vials to a scintillation counter, in triplicate, for both control and experimental samples. […] Data is expressed as a percent of control from which IC50 s are determined.

For data set [2] the test system is unchanged. The data set can be described thus: Inhibition of serum-stimulated porcine aortic smooth muscle cell proliferation (3H-thymidine). Particulars: Sus scrofa, 24-36 hours at 37° C., assayed at 1, 10, and 100 μM, read-out: Porcine Smooth Muscle Cell Antiproliferation IC50 or % Inhibition at × Concentration, Serum. In kind it is cell-based. The procedure:
as §1, §2, §3, §4, §5, §6, §7

Data set [3] is described as follows: Cytotoxicity, commercial modification of the MTT assay. In kind it is cell-based, porcine. Particulars: pig, smooth muscle cells, medium without serum, 24 hours at 37° C., no drug = 100% viable. The procedure:
To distinguish cytotoxicity from the ability of a compound to prevent proliferation, the test compounds were examined using a commercial modification of the MTT assay. Briefly, cells were grown in 24 well plates to 70-80% confluency. The cells were serum deprived for 24-48 hours prior to initiation of the experimental protocol. To insure that the MTT assay monitored toxicity rather than proliferation, the cells were incubated with […] test compound in fresh medium without serum for 24 hours at 37° C. in a humidified CO2 incubator. Upon completion of the compound treatment, MTT indicator dye was added for 4 hours at 37° C. Cells were then solubilized and aliquots from each well were transferred to a 96-well plate for analysis. Absorbance at 570 nm wavelength with a reference wavelength of 630 nm was recorded using an ELISA plate reader. Results are reported as percent viable using no drug (100% viable) and pre-solubilization (0% viable) standards.
In general terms: Formazan colour is commonly taken as a measure of viable cells.

Regarding `Fc1cc2[nH]c(SCc3ccc(Cl)c(Cl)c3)nc2cc1Cl` [Example 1, 5(6)-Chloro-2-(3,4-dichlorobenzylsulfanyl)-6(5)-fluoro-1H-benzoimidazole], the figures for the IC50 in data set [1] and in data set [2] were 0.06 to 0.61 µM and 23.3 µM, respectively. Further, the viability – broadly, a read-out of living cells in per cent, often relative to untreated cells – at 24 h in data set [3] stood at 100%.

With `O=[N+]([O-])c1ccc2[nH]c(SCc3ccc(Cl)c(Cl)c3)nc2c1` [Example 2, 2-(3,4-Dichlorobenzylsulfanyl)-5-nitro-1H-benzoimidazole], the IC50 was 0.12 to 1 µM in data set [1] and 10 µM in data set [2]. This compound also showed a viability at 24 h in data set [3] of 100%.

In the case of `Clc1ccc(CSc2nc3ccccc3[nH]2)cc1Cl` [Example 3, 2-(3,4-Dichlorobenzylsulfanyl)-1H-benzoimidazole], the IC50 in data set [1] was determined as 4.4 µM; in data set [2] it was 12.1 µM. The compound further gave a viability at 24 h in data set [3] of 100%.

For `COC(=O)c1ccc(CSc2nc3ccccc3[nH]2)cc1` [Example 4, 4-(1H-Benzoimidazol-2-ylsulfanylmethyl)-benzoic acid methyl ester], the results for the IC50 in data set [1] and in data set [2] were 3.74 µM and 1.53 µM, respectively. In addition, the viability at 24 h in data set [3] was determined as 100%.

Consider `COC(=O)c1ccc(CSc2nc3cc([N+](=O)[O-])ccc3[nH]2)cc1` [Example 5, 4-(5-Nitro-1H-benzoimidazol-2-ylsulfanylmethyl)-benzoic acid methyl ester], for which the IC50 worked out at 6.17 µM in data set [1] and 18.2 µM in data set [2]. Besides, the viability at 24 h in data set [3] stood at 100%.
